For test [1], the system named is male Swiss Webster mice. Description: Locomotor activity test, Swiss Webster mice. Type of test: in vivo, mouse. The conditions noted are these: IP, photobeam interruptions, versus vehicle. On the procedure:
(§1) Locomotor Activity and the FST. To evaluate the isolated compounds for antidepressant-like activity, male Swiss Webster mice (Harlan, Indianapolis, Ind.) (25-30 g weight) were used. Animals were housed in groups of five with a 12 h light/12 h dark cycle. Food and water were provided at libitum. All procedures involving animals were performed as approved by the Institutional Animal Care and Use Committee of the University of Mississippi. Animals were randomly divided into groups (n=6-10/group). Each group was injected IP with either the compound (1-20 mg/kg), desipramine (20 mg/kg), or vehicle (saline, 10% ethanol or 10% ethanol/1% DMSO). Following injection, locomotor activity was monitored using an automated activity monitoring system (San Diego Instruments, San Diego, Calif.). Each mouse was placed in a Plexiglas enclosure and locomotor activity was recorded as the number of photobeam interruptions for 30 min after drug injection. The activity for the last ten min was quantified and analyzed. Immediately at the end of the locomotor session, individual mice were subjected to the FST. The mice were individually placed in a clear plastic cylinder (23 cm high, 10 cm internal diameter) filled with deionized water (8 cm high) at 25° C. The mice were recorded with a video camera (positioned at about 30 cm above the cylinder) for a total of 6 min. The total period of immobility during the last 4 min was timed by three independent observers. The mean immobility time was then calculated. A mouse was judged to be immobile when it remained afloat, making only minimal movements to keep its head above water.
Effect of select compounds on locomotor activity. Since reductions in immobility time is the primary criterion to assess antidepressant like activity in both the FST and TST, it is crucial to confirm that the effects observed in both tests are not attributed to specific stimulant action of the tested compounds, which would be reflected as enhancement of the locomotor activity. Accordingly, the effect of tested compounds on locomotor activity was evaluated using an automated activity monitoring system.

In test [2] the test system is male Swiss Webster mice. Description: Porsolt forced swim test (FST). Type of test: in vivo, mouse. The conditions noted are these: for antidepressant-like activity / effect on immobility time in FST: male Swiss Webster mice, IP, immobility during last 4 min of 6 min swim. On the procedure:
as §1
(§2) For the FST, immobility times of the three independent rates were averaged for each mouse and data were analyzed using one way analysis of variance (ANOVA) followed by Bonferroni Multiple comparison posthoc tests to determine statistical differences from the corresponding vehicle control. Chick distress vocalization data were analyzed by two-way repeated measures ANOVA, one-way ANOVA and simple effects analyses with post-hoc comparisons conducted using Fisher's LSD test. p-Values less than 0.05 were considered statistically significant.
(§3) Porsolt R D, et al. Behavioral Despair In Mice: A Primary Screening Test for Antidepressants, 229 Arch. Int. Pharmacodyn. 327-36 (1977). […] In order to control for false positives, as has been previously observed with psychostimulants, Cryan, J., et al. Assessing Substrates Underlying The Behavioral Effects Of Antidepressants Using The Modified Rat Forced Swimming Test. 29 Neurosci Biobehav Rev. 547-69 (2005) locomotor activity of the animals was monitored using an automated photobeam activity monitoring system. Lucki. I. The Forced Swimming Test As A Model For Core And Component Behavioral Effects Of Antidepressant Drugs. 8 Behav. Pharmacol. 522-32 (1997).

For a further test, the system named is Male DBA2/J mice. In words: Mouse tail suspension test (TST). The class given is in vivo. The conditions noted are these: i.p., versus vehicle. From the text: Based on the data collected from the FST, the antidepressant action of aaptamine. 5,6-dibromo-N,N-dimethyltryptamine, and 3-bromotyramine was examined in the mouse tail suspension test (TST), another model highly predictive of antidepressant action. Similar to the FST, this test depends on the depressive behavior elicited by the animals when placed in an inescapable situation, in this case suspending the animal by its tail. Male DBA2/J mice were used for this test.
In fact, higher doses seem to increase immobility time (FIG. 9C). […] However, such effect was only evident at the 40 mg/kg dose (compared to 10 and 20 mg/kg dose in the FST) (FIG. 9D).

A further test deals with serotonin receptors. In words: Affinity to serotonin receptors (receptor binding panel). The arrangement: species or system human or rodent. Here is the method:
(§4) Evaluation of binding affinity of isolated compounds to serotonin receptors. In vitro testing of isolated compounds was completed using a small panel of receptor binding assays and then validated in a comprehensive panel by the NIMH Psychoactive Drug Screening Program. Pharmacological and functional screening of isolated molecules was performed on cloned human or rodent CNS receptors, channels, and transporters. Hu, J-F., et al. New Antiinfective and Human 5-HT2 Receptor Binding Natural and Semisynthetic Compounds from the Jamaican Sponge Smenospongia aurea. 65 Jour. of Nat. Prod. 476-80 (2002).
as §3

In another test the target is 5-HT2B receptors (UniProt P41595). Description: In vitro receptor binding assay, 5-HT2B. Further details: species or system human or rodent. The conditions noted are these: read-out: Ki 5-HT2B; preliminary data. On the procedure:
as §4

For test [3], the target named is T1, 5HT2A receptor (Homo sapiens, UniProt P28223). Description: In vitro receptor binding assay, 5-HT2A. As to conditions: read-out: Ki 5-HT2A; preliminary data. Further details: species or system human or rodent. On the procedure: as §4
T1 sequence (P28223 whole entry): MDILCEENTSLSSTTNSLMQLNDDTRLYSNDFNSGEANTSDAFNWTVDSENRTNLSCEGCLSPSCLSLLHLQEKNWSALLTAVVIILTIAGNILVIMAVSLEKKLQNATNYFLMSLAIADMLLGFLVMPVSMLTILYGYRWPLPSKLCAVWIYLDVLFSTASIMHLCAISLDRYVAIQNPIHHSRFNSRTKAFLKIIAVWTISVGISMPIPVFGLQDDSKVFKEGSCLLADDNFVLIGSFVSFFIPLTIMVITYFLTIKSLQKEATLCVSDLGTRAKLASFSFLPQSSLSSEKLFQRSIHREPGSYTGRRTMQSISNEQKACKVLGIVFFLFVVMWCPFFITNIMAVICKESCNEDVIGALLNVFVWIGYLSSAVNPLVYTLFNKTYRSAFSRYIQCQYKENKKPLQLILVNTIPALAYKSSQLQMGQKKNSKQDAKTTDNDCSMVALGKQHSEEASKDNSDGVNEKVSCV
The target of another test is T2, 5-HT2C (UniProt P28335).
T2 sequence (P28335 1-458): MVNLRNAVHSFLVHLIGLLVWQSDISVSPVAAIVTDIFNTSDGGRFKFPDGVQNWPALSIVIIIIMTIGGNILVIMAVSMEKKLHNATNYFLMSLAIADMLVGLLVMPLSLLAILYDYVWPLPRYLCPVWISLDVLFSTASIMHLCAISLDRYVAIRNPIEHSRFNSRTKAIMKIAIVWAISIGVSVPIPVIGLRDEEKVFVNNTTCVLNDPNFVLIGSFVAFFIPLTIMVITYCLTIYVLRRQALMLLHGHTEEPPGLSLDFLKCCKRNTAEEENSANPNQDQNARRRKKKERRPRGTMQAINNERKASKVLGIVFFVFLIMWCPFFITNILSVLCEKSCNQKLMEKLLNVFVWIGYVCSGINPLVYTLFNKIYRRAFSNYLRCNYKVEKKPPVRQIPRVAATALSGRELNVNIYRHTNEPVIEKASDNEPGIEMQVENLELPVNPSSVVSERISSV
Description: In vitro receptor binding assay, 5-HT2C. The arrangement: species or system human or rodent. As to conditions: read-out: Ki 5-HT2C; preliminary data. On the procedure: as §4

For a further test, the target named is 5-HT6 (UniProt P50406). In words: In vitro receptor binding assay, 5-HT6. The arrangement: species or system human or rodent. As to conditions: read-out: Ki 5-HT6; preliminary data. On the procedure: as §4
The subject of another test is white-leghorn cockerels. Description: Chick anxiety-depression continuum model (SCADM). Type of test: in vivo. As to conditions: 30 mg/kg dose. On the procedure: 5,6-Dibromo-N,N-dimethyltryptamine (1) was evaluated in the FST and chicken anxiety-depression model. […] In the chick anxiety-depression continuum model, socially raised chicks are separated from conspecifics during a two hour test session. […] Previous studies have shown the first 5 min block to model the anxiety phase whereby a diverse set of anxiolytic compounds reduce distress vocalizations and that the last 90 min of the test session models the depressive phase of the model whereby antidepressants increase distress vocalizations (i.e., block the onset of behavioral despair). Sufka, K. J. et al.; 17 C. M. Behav.
Sulfka Chick Anxiety-Depression Model (SCADM) Test. Group housed white-leghorn cockerels (Cal-Maine W36) were tested at ages 5-6 days post-hatch. […] Vocalizations were recorded in 5-min blocks over a 120 min test period. […]
as §2

Test [4] deals with T1, 5HT2A receptor. The conditions noted are these: human serotonin receptor, reported; cited from earlier work.
For the next test, the target named is T3, 5HT2C receptor (Homo sapiens, UniProt P28335).
T3 sequence (P28335 33-458): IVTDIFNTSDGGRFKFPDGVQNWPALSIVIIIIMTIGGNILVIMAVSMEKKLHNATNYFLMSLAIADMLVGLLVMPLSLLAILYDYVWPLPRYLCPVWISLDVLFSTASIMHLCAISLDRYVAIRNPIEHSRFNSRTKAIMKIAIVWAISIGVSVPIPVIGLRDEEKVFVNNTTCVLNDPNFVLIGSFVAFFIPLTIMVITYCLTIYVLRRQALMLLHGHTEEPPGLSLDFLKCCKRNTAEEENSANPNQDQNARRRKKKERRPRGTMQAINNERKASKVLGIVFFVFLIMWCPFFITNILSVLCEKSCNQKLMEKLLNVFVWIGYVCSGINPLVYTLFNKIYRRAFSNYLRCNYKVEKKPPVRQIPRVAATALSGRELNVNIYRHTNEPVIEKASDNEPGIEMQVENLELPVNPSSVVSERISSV
As to conditions: cited from earlier work; for Ki: human serotonin receptor, reported.

“Also recorded” adds a separate entry of the source. Like-named read-outs stand apart in the source and are kept apart here.

Regarding `CNCCCN1c2ccccc2CCc2ccccc21` [desipramine, reference compound], in the test with male Swiss Webster mice [1], the “effect on locomotor activity” value was “no significant difference in locomotor activity”. The “reduction in immobility time in FST” value with male Swiss Webster mice [2] (20 mg/kg dose, versus vehicle) is on record as 27%. Besides, the “antidepressant-like action / immobility in tail suspension test” value with Male DBA2/J mice was “significant reduction in immobility”.
As for `COc1cc2ccnc3c2c(c1O)N(C)C=C3` [isoaaptamine], the “affinities to serotonin receptors” value in the test on serotonin receptors is reported as “moderate affinities”. For the same compound, in the test with male Swiss Webster mice [2] (versus vehicle), the “antidepressant-like activity / effect on immobility time in FST” value (from here on “antidepressant-like activity / effect”) was “significantly increased immobility time in a dose-dependent manner”.
In the case of `COc1cc2ccnc3c2c(c1OC)NC=C3` [aaptamine], the “reduction in immobility time in FST” value in the test on male Swiss Webster mice [2] (20 mg/kg dose, versus vehicle) worked out at 36%.
As for `CN1C(=N)N(C)/C(=C/c2c[nH]c3ccccc23)C1=O` [Aplysinopsin, aplysinopsin], in the test with male Swiss Webster mice [2] (versus vehicle), the “antidepressant-like activity / effect” value is listed as “did not show any significant antidepressant-like activity”.
Take `CN(C)CCCC1(c2ccc(F)cc2)OCc2cc(C#N)ccc21` (stereo not shown) [citalopram, reference compound]: the “reduction in immobility time in FST” value with male Swiss Webster mice [2] (5 mg/kg dose, versus saline vehicle) came out at 40%.
In the case of `CN(C)CCc1c[nH]c2cc(Br)c(Br)cc12` [5,6-dibromo-N,N-dimethyltryptamine], the Ki was determined as 11 nM on 5-HT2B receptors, 243 nM at 5HT2A receptor [3], 187 nM at 5-HT2C and 48 nM at 5-HT6. Moreover, in the test with male Swiss Webster mice [1], the “effect on locomotor activity” value is “no statistically significant difference; also recorded: nonsignificant trend toward decreasing locomotor activity”. In addition, the “affinities to serotonin receptors” value in the test with serotonin receptors is “moderate affinities”. For the same compound, the “antidepressant-like activity / effect” value is “significant antidepressant-like action at only the 20 mg/kg dose” in the test on male Swiss Webster mice [2] (versus vehicle) and “significant antidepressant-like activity; also recorded: significantly reduced the immobility time only at the 20 mg/kg dose” in the test on male Swiss Webster mice [2] (versus vehicle, listed as 5,6-Dibromo-N,N-dimethyltryptamine). The “antidepressant-like action / immobility in tail suspension test” value in the test with Male DBA2/J mice is reported as “strong antidepressant-like action at the 5 mg/kg dose only”. The “separation distress vocalizations, depression phase” value with white-leghorn cockerels (30-120 min of test session) is given as “elevating separation distress vocalizations in the final 30 min of the depression phase”. Also, in the test with white-leghorn cockerels (first 5 min of test session), the “separation distress vocalizations, anxiety phase” value is on record as “attenuating separation distress vocalizations in the anxiety phase”.
As to N-3′-ethylaplysinopsin, the Ki is 1700 nM on 5HT2A receptor [4] and 3500 nM at 5HT2C receptor.
As to `CN1C(=N)NC(=Cc2c[nH]c3cc(Br)ccc23)C1=O` [6-bromo-2′-de-N-methylaplysinopsin], the results for the Ki at 5HT2A receptor [4] and at 5HT2C receptor were over 100000 nM and 2300 nM, respectively. For the same compound, the “selectivity to 5HT2C receptors” value at 5HT2C receptor (5HT2C over 5HT2A) is on record as 40 fold.
For `CN1C(=N)N(C)/C(=C/c2c[nH]c3cc(Br)ccc23)C1=O` [6-bromoaplysinopsin], the Ki on 5HT2A receptor [4] was 2000 nM; at 5HT2C receptor, 330 nM.
For the compound `Oc1cc2ccnc3c2c(c1O)NC=C3` [8,9-demethylaaptamine], in the test on serotonin receptors, the “affinities to serotonin receptors” value was “moderate affinities”. In addition, the “antidepressant-like activity / effect” value in the test with male Swiss Webster mice [2] (versus vehicle) is reported as “Neither”.
`CN(C)CCc1c[nH]c2ccc(Br)cc12` [5-bromo-N,N-dimethyltryptamine]: the “effect on locomotor activity” value in the test with male Swiss Webster mice [1] was “significant reduction of locomotor activity”; in the test with male Swiss Webster mice [1] (listed as 2), “significant sedative effect”. Further, the “antidepressant-like activity / effect” value with male Swiss Webster mice [2] (versus vehicle) was “did not exhibit antidepressant-like activity”.
